From patent US10787640B2, “Producing mesodermal cell types and methods of using the same” (The Board of Trustees of the Leland Stanford Junior …, priority 2015, dated 2020)

Experiments:
Type in all cases: cell-based, human
[1] = test system: day 3 early somite progenitors; experiment: Patterning of early somite progenitors into sclerotome or dermomyotome; conditions: 21K with C59, 2-3 days
Procedure: Day 2 paraxial mesoderm was briefly washed (DMEM/F12) and further differentiated into day 3 early somite/somitomere precursors for 24 hours (1 μM A-83-01+250 nM LDN-193189+1 μM C59+500 nM PD0325901). Subsequently, day 3 early somites were dorsoventrally patterned into either ventral somites/sclerotome (5 nM 21K+1 μM C59) or dorsal somites/dermomyotome (3 μM CHIR99021+150 nM Vismodegib). Sclerotome induction was conducted for 48-72 hours (leading to day 5-6 ventral somite progenitors). […] Media was changed 24 hours for all steps. The Hedgehog agonist 21K, which has been previously described in, e.g., Brunton et al., 2009 the disclosure of which is incorporated herein by reference in its entirety, was commercially synthesized.
Day 3 early somites were briefly washed (DMEM/F12), treated with BMP4+CHIR99021+Vismodegib for 24 hours, washed again (DMEM/F12) and subsequently treated with CHIR99021 (3 μM)+21K (5 nM) for 24 hours. This day 5 dermomyotome was further empirically differentiated towards skeletal muscle-like progeny (using medium containing 2% horse serum, which has been previously described in, e.g., Xu et al. 2013, the disclosure of which is incorporated herein by reference in its entirety) for 12 days, yielding day 17 skeletal muscle-containing populations.
FIG. 11: A) To determine the length of time required for sclerotome differentiation, a qPCR timecourse was performed, encompassing undifferentiated hESCs (D0), day 2 hESC-derived paraxial mesoderm (D2 PXM), day 3 hESC-derived early somite progenitors, and hESC-derived day 3 early somite progenitors that were exposed to sclerotome inductive conditions (5 nM 21K+1 μM C59) for 24 or 48 hours. B) Description of EF1α-BCL2-T2A-GFP lentiviral construct (otherwise known as “C306”; top) and FACS plot of a stably-transduced polyclonal H9 hESC line with near-uniform expression of the BCL2-T2A-GFP transgene (green contour) by comparison to uncolored wild-type hESCs (bottom) (see above methods for details of derivation of the H9 BCL2-T2A-GFP hESC line). C) Higher-magnification picture of BCL2-T2A-GFP hESC-derived sclerotome ectopic bone grafts (originally described above in FIG. 4, panel E), showing that despite the near-ubiquitous expression of GFP throughout the ectopic bone graft (indicating its human provenance), the blood vessels are clearly GFP-negative and therefore presumably derived from the mouse host; scale bar=1 mm. […] L) Description of EF1a-BCL2-T2A-GFP lentiviral construct (otherwise known as “C306”; top) and FACS plot of a stably-transduced polyclonal H9 hESC line with near-uniform expression of the BCL2-T2A-GFP transgene (green contour) by comparison to uncolored wild-type hESCs (bottom) (see the methods described herein for details of derivation of the H9 BCL2-T2A-GFP hESC line). M) Description of UBC-Luciferase-T2A-tdTomato lentiviral construct (top); bioluminescent assay of cultured H9 UBC-Luciferase-T2A-tdTomato hESCs validates that these cells are luciferase-expressing in vitro (bottom).

[2] = test system: hESC-derived lateral mesoderm; experiment: Lateral mesoderm patterning, qPCR
Procedure: Subsequently, day 1 anterior primitive streak was briefly washed (DMEM/F12) and differentiated towards day 2 paraxial mesoderm for 24 hours (1 μM A-83-01+3 μM CHIR99021+250 nM LDN-193189+20 ng/mL FGF2). Separately, day 1 mid primitive streak was differentiated towards day 2 lateral mesoderm for 24 hours (1 μM A-83-01+30 ng/mL BMP4+1 μM C59; with 2 μM SB-505124 sometimes used instead of A-83-01).
(§1) C) To reveal the possible identity of non-cardiac mesoderm lineages that were contaminating cardiac mesoderm-containing cultures, NKX2.5-GFP hESCs were differentiated towards mid primitive streak (day 1) and were differentiated towards a heterogeneous population containing cardiac mesoderm (day 3) by treatment with SB-505124+BMP4+C59 (without FGF2) on days 2-3 of differentiation. FACS was performed on day 3 to purify either NKX2.5-GFP^+ or NKX2.5-GFP^− cells (top subpanels) which were sorted for qPCR (bottom subpanels). Gene expression was normalized to expression of a gene in the NKX2.5-GFP^+ fraction (dotted line). D) Timecourse of gene expression in hESCs differentiating towards mid primitive streak and lateral mesoderm, with treatment by SB-505124+BMP4+C59 on days 2-3 of differentiation. […] G) To assess whether a stabilized vitamin C analog (ascorbic acid-2-phosphate) (AA2P) enhanced cardiac mesoderm differentiation into cardiomyocytes, day 4 hESC-derived cardiac mesoderm was exposed to BMP4 (30 ng/mL)+XAV939 (1 μM) for 48 hours in the presence or absence of 200 μg/mL AA2P and qPCR was conducted of day 6 populations; qPCR data were normalized such that expression values in the highest-expressing sample was normalized=1.0. […] J) In the mouse embryo, endocardium (progenitors to heart-affiliated endothelium) are marked by transient coexpression of pan-heart marker Nkx2.5 together with endothelial markers (Ferdous et al., 2009; Stanley et al., 2002).

[3] = test system: day 3 hemogenic precursors; experiment: Hemogenic precursors into day 5 hematopoietic intermediates
Procedure: (§2) SOX17^mCherry/+ H9 hESCs (referred to as SOX17-mCherry hESCs throughout this study) were routinely propagated in mTeSR1 (StemCell Technologies)+1% penicillin/streptomycin. They were passaged ˜1:12-1:25 as fine clumps using Accutase (Gibco) onto plates precoated with a Geltrex substratum (Gibco) in mTeSR1 medium supplemented with thiazovivin ([…]; a ROCK inhibitor). After overnight plating, hESCs were washed (DMEM/F12) and differentiated towards posterior PS using BMP4 (15-40 ng/mL, R&D Systems), CHIR99021 ([…]), FGF2 (20 ng/mL, Invitrogen) and PIK90 (100 nM, Calbiochem) for 24 hours, with the optional inclusion of Activin (30 ng/mL, R&D Systems) to induce mid PS. Day 1 mid or posterior PS was subsequently washed (DMEM/F12) and further differentiated using BMP4 (40 ng/mL), GDC-0941 (0.25-2.5 μM, Cellagen Technology), Forskolin (10 μM, Tocris), SB-505124 ([…]), VEGF (100 ng/mL, R&D Systems), XAV939 (1 μM, Tocris) and ascorbic acid-2-phosphate (200 μg/mL, Sigma) for 24 hours. Day 2 cultures were further directed into the definitive hematopoietic lineage/hemogenic precursors by Activin A (15 ng/mL), GDC-0941 (0.25-2.5 μM), VEGF (100 ng/mL), XAV939 (1 μM) and ascorbic acid-2-phosphate (200 μg/mL) for 24 hours. Day 3 definitive hematopoietic progenitors were subsequently differentiated into early Runx1^lowGfi1^low hemogenic intermediates through day 4-5 treatment with BMP4 (50 ng/mL), TTNPB (500 nM), VEGF (100 ng/mL) and XAV939 (1 μM) for 48 hours, supplemented with SB-505124 (2 μM) on day 5. Day 5 populations were then dissociated into single cells, counted and reaggregated in individual wells of a low-adhesion V-bottom or U-bottom 96-well plate (e.g., Thermo Fisher, catalog no. 249952) with ˜15,000-20,000 cells seeded per well. Aggregates were cultured for 48 additional hours until day 7 in BMP4 (50 ng/mL), TTNPB (500 nM), VEGF (100 ng/mL), XAV939 (1 μM), SB-505124 (2 μM), SCF (25-50 ng/mL, R&D Systems), IL6 (10 ng/mL, R&D Systems) and IL6RA (250-1000 ng/mL, R&D Systems). All differentiation was conducted in serum-free CDM2 fully-defined basal media.

lateral mesoderm = experiment: Forelimb versus hindlimb progenitor specification from lateral mesoderm; conditions: RA signaling activated for 24 hours during lateral mesoderm induction (D1-2)
Procedure: Undifferentiated hPSCs (wild-type H7 as well as TBX5-Venus V19-2 H9 hESCs) were maintained in mTeSR1 media on Geltrex-coated plates. As described, they were differentiated into mid primitive streak for 24 hours (D0-1; 30 ng/mL Activin+40 ng/mL BMP4+6 μM CHIR99021+20 ng/mL FGF2+100 nM PIK90) and subsequently differentiated into lateral mesoderm (D1-2; 1 μM A-83-01+30 ng/mL BMP4+1 μM C59), with the inclusion of 50 nM of TTNPB or 2 μM ATRA on D1-2 for trunk lateral mesoderm that was subsequently competent for forelimb differentiation.
Day 2 trunk lateral mesoderm was differentiated into day 3 forelimb progenitors (D2-3; 1 μM A-83-01+1 μM DMH1+3 μM CHIR99021). By contrast, day 2 non-trunk lateral mesoderm was differentiated into day 3 hindlimb progenitors (D2-3; 25 ng/mL Activin+1 μM DMH1+3 μM CHIR99021).

[4] = test system: hESC-derived cardiac mesoderm; experiment: Cardiac mesoderm differentiation into cardiovascular fates, qPCR; conditions: added to WNT blockade with BMP activation
Procedure: Day 2 lateral mesoderm was differentiated into day 4 cardiac mesoderm by treating them with 1 μM A8301+30 ng/mL BMP4+1 μM C59+20 ng/mL FGF2 for 48 hrs, or alternatively, with 1 μM A8301+30 ng/mL BMP4+20 ng/mL FGF2 for 24 hrs followed by 25 ng/mL Activin+30 ng/mL BMP4+1 μM C59 for the next 24 hrs (schema in FIG. 5E; positive effect of mid-stage Activin shown in FIG. 12K). Subsequently, day 4 cardiac mesoderm was briefly washed (DMEM/F12) and treated with 30 ng/mL BMP4+1 μM XAV939+200 μg/mL 2-phospho-ascorbic acid (Sigma) for 48-96 hrs to yield day 6-8 cardiomyocyte-containing populations. Spontaneously contracting cardiomyocyte foci were evident from day 8 onwards.
as §1

SOX17-mCherry hESCs = experiment: Hematopoietic mesoderm and SOX17+CD34+ hemogenic precursor specification
Procedure: as §2

[5] = test system: day 5 hematopoietic intermediates; experiment: Day 5-7 continued differentiation of hematopoietic intermediates, factor withholding; conditions: individually withholding the factor from the 8 factors, 48 hours
Procedure: as §2

In the case of `Cc1cc(-c2ccc(CC(=O)Nc3ccc(-c4cccnc4)cc3)cc2)ccn1` [C59, 4-(2-Methyl-4-pyridinyl)-N-[4-(3-pyridinyl)phenyl]benzeneacetamide], the sclerotome fate induction [1] is reported as “efficiently induced the sclerotome fate”, the “lateral mesoderm fate (qPCR)” value ([2]; day 2 lateral mesoderm, SB-505124+BMP4 with CHIR99021 or C59, 24 hours) is reported as “induced an anterior lateral mesoderm/cardiac mesoderm fate” and the “pan-lateral mesoderm marker FOXF1 expression” value ([2]; last 12 hrs C59 or 3 μM CHIR in addition to BS) is reported as “not markedly changed”.
For `C/C(=C\c1ccc(C(=O)O)cc1)c1ccc2c(c1)C(C)(C)CCC2(C)C` [TTNPB], the TBX20 expression ([3]; day 5) was “important to downregulate TBX20 expression”, the “RUNX1 expression by day 5” value ([3]; withdrawal of the factor from BMP, VEGF, XAV939, TTNPB) was “crippled RUNX1 expression” and the “forelimb transcription factor TBX5 expression on D3” value (lateral mesoderm) was “paramount for lateral mesoderm to subsequently express key forelimb transcription factor TBX5”.
For `O=C1O[C@H]([C@@H](O)CO)C(O)=C1OP(=O)(O)O` [ascorbic acid-2-phosphate], the cardiomyocyte differentiation [4] was “further enhanced” and the “efficiency of CD34+ progenitors produced by day 3” value (SOX17-mCherry hESCs; included on days 2 and 3) was “moderately enhanced the efficiency of CD34^+ progenitors”.
For `O=c1[nH]c(-c2ccc(C(F)(F)F)cc2)nc2c1CSCC2` [XAV939, 3,5,7,8-Tetrahydro-2-[4-(trifluoromethyl)phenyl]-4H-thiopyrano[4,3-d]pyrimidin-4-one], the “SOX17+ cells formed by day 3” value (SOX17-mCherry hESCs; treatment on day 2-3, 24 hours) was “doubled the formation of SOX17^+ cells”, the GATA1 expression ([3]; day 5) was “pivotal to prevent BMP-induced GATA1 expression” and the GFI1B expression [5] was “strongly diminished”.
